Test results as given in ChEMBL document CHEMBL4308897, “Antileishmanial activity and cytotoxicity of ent-beyerene diterpenoids” (Bioorg Med Chem, 2019).
Active and inactive are the calls of the source. No cut-off for these calls is given here.

How the values were obtained:
Syrian golden hamster [1] = assay: Antiinflammatory activity in golden hamster infected with Leishmania (Viannia) braziliensis HMOM/COL/88/UA301-EGFP assessed as migration of plasmocytes in skin at 2.6% administered topically as cream formulation for 20 days and measured 3 months post last treatment by histopathological analysis; assay type: functional, organism-based; settings: Mesocricetus auratus
[2] = Hepatotoxicity in golden hamster infected with Leishmania (Viannia) braziliensis HMOM/COL/88/UA301-EGFP assessed as congestion at 2.6% administered topically as cream formulation for 20 days measured 90 days post last dose by histopathological analysis; assay type: toxicity, Mesocricetus auratus; settings: in vivo, topical_or_ocular, 2160 h
Syrian golden hamster [3] = assay: Antiinflammatory activity in golden hamster infected with Leishmania (Viannia) braziliensis HMOM/COL/88/UA301-EGFP assessed as migration of lymphocytes in skin at 2.6% administered topically as cream formulation for 20 days and measured 3 months post last treatment by histopathological analysis; assay type: functional, organism-based; settings: Mesocricetus auratus
Leishmania braziliensis [4] = assay: Antileishmanial activity against Leishmania (Viannia) braziliensis HMOM/COL/88/UA301-EGFP infected in golden hamster assessed as clinical improvement at 2.6% administered topically as cream formulation for 20 days measured 3 months post last dose relative to control; assay type: functional
[5] = Cytotoxicity against human U937 cells after 72 hrs by MTT assay; assay type: cell-based, U-937; settings: read-out: LC50
[6] = Selectivity index, ratio of LC50 for human U937 cells to EC50 for Leishmania (Viannia) braziliensis HMOM/COL/88/UA301-EGFP intracellular amastigotes infected in human U937 cells; assay type: toxicity, cell-based; settings: read-out: Selectivity Index
Syrian golden hamster [7] = assay: Antiinflammatory activity in golden hamster infected with Leishmania (Viannia) braziliensis HMOM/COL/88/UA301-EGFP assessed as re-epithelialization in skin at 2.6% administered topically as cream formulation for 20 days and measured 3 months post last treatment by histopathological analysis; assay type: functional, organism-based; settings: Mesocricetus auratus
[8] = Renal toxicity in golden hamster infected with Leishmania (Viannia) braziliensis HMOM/COL/88/UA301-EGFP assessed as vacuolar degeneration at 2.6% administered topically as cream formulation for 20 days measured 90 days post last dose by histopathological analysis; parameters: species or system Mesocricetus auratus; settings: in vivo, topical_or_ocular, 2160 h
[9] = Toxicity in golden hamster infected with Leishmania (Viannia) braziliensis HMOM/COL/88/UA301-EGFP assessed as effect on serum creatinine level at 2.6% administered topically as cream formulation for 20 days and measured day 8 post last treatment; parameters: species or system Mesocricetus auratus; settings: in vivo, topical_or_ocular, 480 h
Leishmania braziliensis [10] = assay: Antileishmanial activity against Leishmania (Viannia) braziliensis HMOM/COL/88/UA301-EGFP infected in golden hamster assessed as cure rate at 2.6% administered topically as cream formulation for 20 days measured 3 months post last dose relative to control; assay type: functional
[11] = Hepatotoxicity in golden hamster infected with Leishmania (Viannia) braziliensis HMOM/COL/88/UA301-EGFP assessed as hemosiderin pigmentation at 2.6% administered topically as cream formulation for 20 days measured 90 days post last dose by histopathological analysis; assay type: toxicity, Mesocricetus auratus; settings: in vivo, topical_or_ocular, 2160 h
[12] = Hepatotoxicity in golden hamster infected with Leishmania (Viannia) braziliensis HMOM/COL/88/UA301-EGFP assessed as infiltration of macrophages at 2.6% administered topically as cream formulation for 20 days measured 90 days post last dose by histopathological analysis; assay type: toxicity, Mesocricetus auratus; settings: in vivo, topical_or_ocular, 2160 h
[13] = Toxicity in golden hamster infected with Leishmania (Viannia) braziliensis HMOM/COL/88/UA301-EGFP assessed as effect on serum alanine aminotransferase level at 2.6% administered topically as cream formulation for 20 days and measured day 8 post last treatment; parameters: species or system Mesocricetus auratus; settings: in vivo, topical_or_ocular, 480 h
Syrian golden hamster [14] = assay: Antiinflammatory activity in golden hamster infected with Leishmania (Viannia) braziliensis HMOM/COL/88/UA301-EGFP assessed as migration of macrophages in skin at 2.6% administered topically as cream formulation for 20 days and measured 3 months post last treatment by histopathological analysis; assay type: functional, organism-based; settings: Mesocricetus auratus
[15] = Hepatotoxicity in golden hamster infected with Leishmania (Viannia) braziliensis HMOM/COL/88/UA301-EGFP assessed as vacuolar degeneration at 2.6% administered topically as cream formulation for 20 days measured 90 days post last dose by histopathological analysis; assay type: toxicity, Mesocricetus auratus; settings: in vivo, topical_or_ocular, 2160 h
Leishmania braziliensis [16] = assay: Antileishmanial activity against Leishmania (Viannia) braziliensis HMOM/COL/88/UA301-EGFP infected in golden hamster assessed as relapse at 2.6% administered topically as cream formulation for 20 days measured 3 months post last dose relative to control; assay type: functional
[17] = Toxicity in golden hamster infected with Leishmania (Viannia) braziliensis HMOM/COL/88/UA301-EGFP assessed as effect on serum BUN level at 2.6% administered topically as cream formulation for 20 days and measured day 8 post last treatment; parameters: species or system Mesocricetus auratus; settings: in vivo, topical_or_ocular, 480 h
Leishmania braziliensis [18] = assay: Antileishmanial activity against Leishmania (Viannia) braziliensis HMOM/COL/88/UA301-EGFP infected in golden hamster assessed as clinical failure at 2.6% administered topically as cream formulation for 20 days measured 3 months post last dose relative to control; assay type: functional
[19] = Toxicity in golden hamster infected with Leishmania (Viannia) braziliensis HMOM/COL/88/UA301-EGFP assessed as change in body weight at 2.6% administered topically as cream formulation for 20 days measured up to 90 days post last dose; parameters: species or system Mesocricetus auratus; settings: in vivo, topical_or_ocular
Leishmania braziliensis [20] = assay: Antileishmanial activity against Leishmania (Viannia) braziliensis HMOM/COL/88/UA301-EGFP intracellular amastigotes infected in human U937 cells after 72 hrs by flow cytometric analysis; assay type: functional, organism-based; settings: HMOM/COL/88/UA301, U-937, 72 h
[21] = Hepatotoxicity in golden hamster infected with Leishmania (Viannia) braziliensis HMOM/COL/88/UA301-EGFP assessed as infiltration of lymphocytes at 2.6% administered topically as cream formulation for 20 days measured 90 days post last dose by histopathological analysis; assay type: toxicity, Mesocricetus auratus; settings: in vivo, topical_or_ocular, 2160 h
[22] = Renal toxicity in golden hamster infected with Leishmania (Viannia) braziliensis HMOM/COL/88/UA301-EGFP assessed as infiltration of plasma cells at 200 ug administered intralesionally twice per week for 4 weeks measured 90 days post last dose by histopathological analysis; parameters: species or system Mesocricetus auratus; settings: in vivo, other, 2160 h
[23] = Hepatotoxicity in golden hamster infected with Leishmania (Viannia) braziliensis HMOM/COL/88/UA301-EGFP assessed as congestion at 200 ug administered intralesionally twice per week for 4 weeks measured 90 days post last dose by histopathological analysis; assay type: toxicity, Mesocricetus auratus; settings: in vivo, other, 2160 h
[24] = Hepatotoxicity in golden hamster infected with Leishmania (Viannia) braziliensis HMOM/COL/88/UA301-EGFP assessed as infiltration of macrophages at 200 ug administered intralesionally twice per week for 4 weeks measured 90 days post last dose by histopathological analysis; assay type: toxicity, Mesocricetus auratus; settings: in vivo, other, 2160 h
[25] = Hepatotoxicity in golden hamster infected with Leishmania (Viannia) braziliensis HMOM/COL/88/UA301-EGFP assessed as hemosiderin pigmentation at 200 ug administered intralesionally twice per week for 4 weeks measured 90 days post last dose by histopathological analysis; assay type: toxicity, Mesocricetus auratus; settings: in vivo, other, 2160 h
[26] = Toxicity in golden hamster infected with Leishmania (Viannia) braziliensis HMOM/COL/88/UA301-EGFP assessed as effect on serum BUN level at 200 ug administered intralesionally twice per week for 4 weeks measured day 8 post last treatment; parameters: species or system Mesocricetus auratus; settings: in vivo, other, 672 h
[27] = Renal toxicity in golden hamster infected with Leishmania (Viannia) braziliensis HMOM/COL/88/UA301-EGFP assessed as infiltration of lymphocytes at 200 ug administered intralesionally twice per week for 4 weeks measured 90 days post last dose by histopathological analysis; parameters: species or system Mesocricetus auratus; settings: in vivo, other, 2160 h
[28] = Toxicity in golden hamster infected with Leishmania (Viannia) braziliensis HMOM/COL/88/UA301-EGFP assessed as change in body weight at 200 ug administered intralesionally twice per week for 4 weeks measured up to 90 days post last dose; parameters: species or system Mesocricetus auratus; settings: in vivo, other
[29] = Renal toxicity in golden hamster infected with Leishmania (Viannia) braziliensis HMOM/COL/88/UA301-EGFP assessed as vacuolar degeneration at 200 ug administered intralesionally twice per week for 4 weeks measured 90 days post last dose by histopathological analysis; parameters: species or system Mesocricetus auratus; settings: in vivo, other, 2160 h
[30] = Renal toxicity in golden hamster infected with Leishmania (Viannia) braziliensis HMOM/COL/88/UA301-EGFP assessed as fibrosis at 200 ug administered intralesionally twice per week for 4 weeks measured 90 days post last dose by histopathological analysis; parameters: species or system Mesocricetus auratus; settings: in vivo, other, 2160 h
[31] = Renal toxicity in golden hamster infected with Leishmania (Viannia) braziliensis HMOM/COL/88/UA301-EGFP assessed as edema at 200 ug administered intralesionally twice per week for 4 weeks measured 90 days post last dose by histopathological analysis; parameters: species or system Mesocricetus auratus; settings: in vivo, other, 2160 h
[32] = Hepatotoxicity in golden hamster infected with Leishmania (Viannia) braziliensis HMOM/COL/88/UA301-EGFP assessed as external stress condition induced changes at 200 ug administered intralesionally twice per week for 4 weeks measured 90 days post last dose by histopathological analysis; assay type: toxicity, Mesocricetus auratus; settings: in vivo, other, 2160 h
[33] = Hepatotoxicity in golden hamster infected with Leishmania (Viannia) braziliensis HMOM/COL/88/UA301-EGFP assessed as vacuolar degeneration at 200 ug administered intralesionally twice per week for 4 weeks measured 90 days post last dose by histopathological analysis; assay type: toxicity, Mesocricetus auratus; settings: in vivo, other, 2160 h
[34] = Toxicity in golden hamster infected with Leishmania (Viannia) braziliensis HMOM/COL/88/UA301-EGFP assessed as effect on serum creatinine level at 200 ug administered intralesionally twice per week for 4 weeks measured day 8 post last treatment; parameters: species or system Mesocricetus auratus; settings: in vivo, other, 672 h
[35] = Renal toxicity in golden hamster infected with Leishmania (Viannia) braziliensis HMOM/COL/88/UA301-EGFP assessed as turbid degeneration at 200 ug administered intralesionally twice per week for 4 weeks measured 90 days post last dose by histopathological analysis; parameters: species or system Mesocricetus auratus; settings: in vivo, other, 2160 h
[36] = Toxicity in golden hamster infected with Leishmania (Viannia) braziliensis HMOM/COL/88/UA301-EGFP assessed as effect on serum alanine aminotransferase level at 200 ug administered intralesionally twice per week for 4 weeks measured day 8 post last treatment; parameters: species or system Mesocricetus auratus; settings: in vivo, other, 672 h
[37] = Hepatotoxicity in golden hamster infected with Leishmania (Viannia) braziliensis HMOM/COL/88/UA301-EGFP assessed as infiltration of lymphocytes at 200 ug administered intralesionally twice per week for 4 weeks measured 90 days post last dose by histopathological analysis; assay type: toxicity, Mesocricetus auratus; settings: in vivo, other, 2160 h
[38] = Hepatotoxicity in golden hamster infected with Leishmania (Viannia) braziliensis HMOM/COL/88/UA301-EGFP assessed as hyperplasia at 200 ug administered intralesionally twice per week for 4 weeks measured 90 days post last dose by histopathological analysis; assay type: toxicity, Mesocricetus auratus; settings: in vivo, other, 2160 h

## C[C@]12C=C[C@@]3(CC[C@@H]4[C@@](C)(CO)CCC[C@@]4(C)[C@@H]3CC1)C2
Syrian golden hamster [1]
  Activity: Active
[2]
  Activity: Toxic
Syrian golden hamster [3]
  Activity: Active
Leishmania braziliensis [4]
  Activity: 0%
[5]
  CC50 at 72 h: 122 µM
[6]
  selectivity ratio: 7.7
Syrian golden hamster [7]
  Activity: Active
[8]
  Activity: Toxic
[9]
  Activity: Non-Toxic
Leishmania braziliensis [10]
  Activity: 50%
[11]
  Activity: Toxic
[12]
  Activity: Toxic
[13]
  Activity: Non-Toxic
Syrian golden hamster [14]
  Activity: Active
[15]
  Activity: Toxic
Leishmania braziliensis [16]
  Activity: 16.7%
[17]
  Activity: Non-Toxic
Leishmania braziliensis [18]
  Activity: 33.3%
[19]
  Activity: Non-Toxic
Leishmania braziliensis [20]
  EC50: 18.1 µM
[21]
  Activity: Toxic

## MEGLUMINE ANTIMONATE
[22]
  Activity: Toxic
[23]
  Activity: Toxic
[24]
  Activity: Toxic
[25]
  Activity: Toxic
[26]
  Activity: Non-Toxic
[27]
  Activity: Toxic
[28]
  Activity: Toxic
[29]
  Activity: Toxic
[30]
  Activity: Toxic
[31]
  Activity: Toxic
[32]
  Activity: Toxic
[33]
  Activity: Toxic
[34]
  Activity: Non-Toxic
[35]
  Activity: Toxic
[36]
  Activity: Non-Toxic
[37]
  Activity: Toxic
[38]
  Activity: Toxic
